Assays:
sugar cane [1] = test: Phytotoxicity on sugar cane, spray above weed before planting, strobilurin-treated stem cutting (Example 9)
Protocol: (§1) The “phytotoxicity” evaluated herein is the damage characteristic determined to be due to a treated compound, and is clearly discriminated from the damage characteristic caused by a harmful animal or plant disease.
(§2) A soil is packed into a plastic pot, and seeds of Amaranthus retroflexus are seeded thereon. Thereafter, the pot is placed in a greenhouse, and the weed is grown.
(§3) A 30 cm to 40 cm stem cutting of sugar cane is placed on a wet soil, and germination is stimulated. The stem cutting from which a bud has grown to about 1 cm is selected, and the length of the stem cutting is adjusted to be 3 cm so that the stem cutting has one node. Kresoxim-methyl, azoxystrobin, trifloxystrobin, fluoxastrobin, picoxystrobin, pyraclostrobin, dimoxystrobin, pyribencarb, metominostrobin, orysastrobin, enestrobin, pyraoxystrobin or pyrametostrobin is adhered to the stem cutting.
(§4) The pot for a test is placed in a greenhouse.

sugar cane [2] = test: Phytotoxicity on sugar cane, spray above weed before planting, insecticide-treated stem cutting (Example 7)
Protocol: as §1, §2
A 30 cm to 40 cm stem cutting of sugar cane is placed on a wet soil, and germination is stimulated. The stem cutting from which a bud has grown to about 1 cm is selected, and the length of the stem cutting is adjusted to be 3 cm so that the stem cutting has one node. Clothianidin, thiamethoxiam, imidacloprid, dinotefuran, nitenpyram, acetamiprid or thiacloprid is adhered to the stem cutting.
as §4

Amaranthus retroflexus [3] = test: Herbicidal activity, spray above weed before planting, metalaxyl-treated stem cutting (Example 13); type: in vivo; conditions: sprayed above weed, 3 cm stem cutting treated with metalaxyl or metalaxyl-M planted one week after treatment, four weeks after treatment
Excerpt: A 30 cm to 40 cm stem cutting of sugar cane is placed on a wet soil, and germination is stimulated. The stem cutting from which a bud has grown to about 1 cm is selected, and the length of the stem cutting is adjusted to be 3 cm so that the stem cutting has one node. Metalaxyl or metalaxyl-M is adhered to the stem cutting.

Amaranthus retroflexus [4] = test: Herbicidal activity, soil surface spray, azole-fungicide-treated stem cutting (Example 10); type: in vivo; conditions: 3 cm stem cutting treated with azaconazole, bitertanol or another listed azole-type fungicide, four weeks after treatment
Amaranthus retroflexus [5] = test: Herbicidal activity, spray above weed before planting, insecticide-treated stem cutting (Example 7); type: in vivo; conditions: sprayed above weed, 3 cm stem cutting treated with clothianidin, thiamethoxiam, imidacloprid, dinotefuran, nitenpyram, acetamiprid or thiacloprid planted one week after treatment, four weeks after treatment
sugar cane [6] = test: Phytotoxicity on sugar cane, soil surface spray, strobilurin-treated stem cutting (Example 8)
Excerpt: as §1
as §3, with “cutting. A soil is packed into a plastic pot, and seeds of Amaranthus retroflexus are seeded thereon. The stem cutting of sugar cane treated with kresoxim-methyl, azoxystrobin, trifloxystrobin, fluoxastrobin, picoxystrobin, pyraclostrobin, dimoxystrobin, pyribencarb, metominostrobin, orysastrobin, enestrobin, pyraoxystrobin or pyrametostrobin is planted in the soil packed into the pot at a depth of 2 cm. […] Thereafter, the pot for a test is placed in a greenhouse.” for “cutting.”

sugar cane [7] = test: Phytotoxicity on sugar cane, soil surface spray, azole-fungicide-treated stem cutting (Example 10)
Excerpt: as §1
A 30 to 40 cm stem cutting of sugar cane is placed on a wet soil, and germination is stimulated. The stem cutting from which a bud has grown to about 1 cm is selected, and the length of the stem cutting is adjusted to be 3 cm so that the stem cutting has one node. Azaconazole, bitertanol, bromoconazole, cyproconazole, difenoconazole, diniconazole, epoxyconazole, fenbuconazole, fluquinconazole, flusilazole, flutriafol, hexaconazole, imibenconazole, ipconazole, metconazole, myclobutanil, penconazole, propiconazole, prothioconazole, simeconazole, tebuconazole, tetraconazole, triadimenol, triticonazole, fenarimol, nuarimol, pyrifenox, imazalil, oxpoconazole fumarate, pefurazoate, procloraz or triflumizole is adhered to the stem cutting. A soil is packed into a plastic pot, and seeds of Amaranthus retroflexus are seeded thereon. The stem cutting of sugar cane treated with azaconazole, bitertanol, bromoconazole, cyproconazole, difenoconazole, diniconazole, epoxyconazole, fenbuconazole, fluquinconazole, flusilazole, flutriafol, hexaconazole, imibenconazole, ipconazole, metconazole, myclobutanil, penconazole, propiconazole, prothioconazole, simeconazole, tebuconazole, tetraconazole, triadimenol, triticonazole, fenarimol, nuarimol, pyrifenox, imazalil, oxpoconazole fumarate, pefurazoate, procloraz or triflumizole is planted in the soil packed into the pot at a depth of 2 cm. […] Thereafter, the pot for a test is placed in a greenhouse.

Amaranthus retroflexus [8] = test: Herbicidal activity, spray above weed before planting, strobilurin-treated stem cutting (Example 9); type: in vivo; conditions: sprayed above weed, 3 cm stem cutting treated with kresoxim-methyl, azoxystrobin or another listed strobilurin fungicide planted one week after treatment, four weeks after treatment
Amaranthus retroflexus [9] = test: Herbicidal activity, spray above weed before planting, azole-fungicide-treated stem cutting (Example 11); type: in vivo; conditions: sprayed above weed, 3 cm stem cutting treated with azaconazole, bitertanol or another listed azole-type fungicide planted one week after treatment, four weeks after treatment
Protocol: A soil is packed into a plastic pat, and seeds of Amaranthus retroflexus are seeded thereon. Thereafter, the pot is placed in a greenhouse, and the weed is grown.

sugar cane [10] = test: Phytotoxicity on sugar cane, spray above weed one week before planting (Example 5)
Protocol: as §1, §2
(§5) A 30 cm to 40 cm stem cutting of sugar cane is placed on a wet soil, and germination is stimulated. The stem cutting from which a bud has been grown to about 1 cm is selected, and the length of the stem cutting is adjusted to be 3 cm so that the stem cutting has one node.
as §4

Amaranthus retroflexus [11] = test: Herbicidal activity, soil surface spray, strobilurin-treated stem cutting (Example 8); type: in vivo; conditions: 3 cm stem cutting treated with kresoxim-methyl, azoxystrobin or another listed strobilurin fungicide, four weeks after treatment
Excerpt: A 30 cm to 40 cm stem cutting of sugar cane is placed on a wet soil, and germination is stimulated. The stem cutting from which a bud has grown to about 1 cm is selected, and the length of the stem cutting is adjusted to be 3 cm so that the stem cutting has one node. Kresoxim-methyl, azoxystrobin, trifloxystrobin, fluoxastrobin, picoxystrobin, pyraclostrobin, dimoxystrobin, pyribencarb, metominostrobin, orysastrobin, enestrobin, pyraoxystrobin or pyrametostrobin is adhered to the stem cutting. A soil is packed into a plastic pot, and seeds of Amaranthus retroflexus are seeded thereon. The stem cutting of sugar cane treated with kresoxim-methyl, azoxystrobin, trifloxystrobin, fluoxastrobin, picoxystrobin, pyraclostrobin, dimoxystrobin, pyribencarb, metominostrobin, orysastrobin, enestrobin, pyraoxystrobin or pyrametostrobin is planted in the soil packed into the pot at a depth of 2 cm. […] Thereafter, the pot for a test is placed in a greenhouse.

Amaranthus retroflexus [12] = test: Herbicidal activity, soil surface spray, insecticide-treated stem cutting (Example 6); type: in vivo; conditions: 3 cm stem cutting treated with clothianidin, thiamethoxiam, imidacloprid, dinotefuran, nitenpyram, acetamiprid or thiacloprid, four weeks after treatment
Protocol: A 30 cm to 40 cm stem cutting of sugar cane is placed on a wet soil, and germination is stimulated. The stem cutting from which a bud has grown to about 1 cm is selected, and the length of the stem cutting is adjusted to be 3 cm so that the stem cutting has one node. Clothianidin, thiamethoxiam, imidacloprid, dinotefuran, nitenpyram, acetamiprid or thiacloprid is adhered to the stem cutting. A soil is packed into a plastic pot, and seeds of Amaranthus retroflexus are seeded thereon. The stem cutting of sugar cane treated with clothianidin, thiamethoxiam, imidacloprid, dinotefuran, nitenpyram, acetamiprid or thiacloprid is planted in the soil packed into the pot at a depth of 2 cm. […] Thereafter, the pot for a test is placed in a greenhouse.

sugar cane [13] = test: Phytotoxicity on sugar cane, spray above weed before planting, metalaxyl-treated stem cutting (Example 13)
Protocol: as §1
A soil is packed into a plastic pot, and seeds of Amaranthus retroflexus are seeded thereon. Thereafter, a pot is placed in a greenhouse, and the weed is grown.
as §5, with “has” for “has been”, “node. Metalaxyl or metalaxyl-M is adhered to the stem cutting.” for “node.”
as §4

[14] = Example 9, sprayed above weed, 3 cm stem cutting treated with kresoxim-methyl, azoxystrobin or another listed strobilurin fungicide planted one week after treatment, four weeks after treatment
[15] = Example 8, 3 cm stem cutting treated with kresoxim-methyl, azoxystrobin or another listed strobilurin fungicide, soil surface spray, four weeks after treatment

Row | SMILES | phytotoxicity (sugar cane [1]; [14]) | phytotoxicity (sugar cane [2]; in vivo) | herbicidal activity against Amaranthus retroflexus (Amaranthus retroflexus [3]) | herbicidal activity against Amaranthus retroflexus (Amaranthus retroflexus [4]) | herbicidal activity against Amaranthus retroflexus (Amaranthus retroflexus [5]) | phytotoxicity (sugar cane [6]; [15]) | phytotoxicity (sugar cane [7]; in vivo) | herbicidal activity against Amaranthus retroflexus (Amaranthus retroflexus [8]) | herbicidal activity against Amaranthus retroflexus (Amaranthus retroflexus [9]) | phytotoxicity (sugar cane [10]; in vivo) | herbicidal activity against Amaranthus retroflexus (Amaranthus retroflexus [11]) | herbicidal activity against Amaranthus retroflexus (Amaranthus retroflexus [12]) | phytotoxicity (sugar cane [13]; in vivo) | phytotoxicity (sugar cane [1]; in vivo) | phytotoxicity (sugar cane [6]; in vivo) | phytotoxicity (sugar cane [2]; Example 7, sprayed above weed, 3 cm stem cutting treated with clothianidin, thiamethoxiam, imidacloprid, dinotefuran, nitenpyram, acetamiprid or thiacloprid planted one week after treatment, four weeks after treatment) | phytotoxicity (sugar cane [7]; Example 10, 3 cm stem cutting treated with azaconazole, bitertanol or another listed azole-type fungicide, soil surface spray, four weeks after treatment) | phytotoxicity (sugar cane [10]; Example 5, sprayed above weed three weeks after seeding, 3 cm stem cutting planted one week after treatment, four weeks after treatment) | phytotoxicity (sugar cane [13]; Example 13, sprayed above weed, 3 cm stem cutting treated with metalaxyl or metalaxyl-M planted one week after treatment, four weeks after treatment)
1 | C#CCN1C(=O)COc2cc(F)c(-n3c(=O)n(C)c(=S)n(C)c3=O)cc21 [compound of the formula (I)] | significant phytotoxicity on sugar cane is not observed | significant phytotoxicity on sugar cane is not observed | the controlling effect on a weed can be confirmed | the control effect on a weed can be confirmed | the controlling effect on a weed can be confirmed | significant phytotoxicity on sugar cane is not observed | significant phytotoxicity on sugar cane is not observed | the controlling effect on a weed can be confirmed | the controlling effect on a weed can be confirmed | significant phytotoxicity on sugar cane is not found | the controlling effect on a weed can be confirmed | the controlling effect on a weed can be confirmed | significant phytotoxicity on sugar cane is not observed |  |  |  |  |  | 
2 | Cc1nn(-c2cc(NS(C)(=O)=O)c(Cl)cc2Cl)c(=O)n1C(F)F [sulfentrazone] |  | significant phytotoxicity on sugar cane is not observed | the controlling effect on a weed can be confirmed | the control effect on a weed can be confirmed | the controlling effect on a weed can be confirmed |  | significant phytotoxicity on sugar cane is not observed | the controlling effect on a weed can be confirmed | the controlling effect on a weed can be confirmed | significant phytotoxicity on sugar cane is not found | the controlling effect on a weed can be confirmed | the controlling effect on a weed can be confirmed | significant phytotoxicity on sugar cane is not observed | significant phytotoxicity on sugar cane is not observed | significant phytotoxicity on sugar cane is not observed |  |  |  | 
3 | C#CCN1C(=O)COc2cc(F)c(N3C(=O)C4=C(CCCC4)C3=O)cc21 [Flumioxazin, flumioxazin] | significant phytotoxicity on sugar cane is not observed |  | the controlling effect on a weed can be confirmed | the control effect on a weed can be confirmed | the controlling effect on a weed can be confirmed | significant phytotoxicity on sugar cane is not observed |  | the controlling effect on a weed can be confirmed | the controlling effect on a weed can be confirmed |  | the controlling effect on a weed can be confirmed | the controlling effect on a weed can be confirmed |  |  |  | significant phytotoxicity on sugar cane is not observed | significant phytotoxicity on sugar cane is not observed | significant phytotoxicity on sugar cane is not found | significant phytotoxicity on sugar cane is not observed

Source: US20140329682A1, “METHOD OF CONTROLLING WEED IN A SUGAR CANE FIELD” (SUMITOMO CHEMICAL COMPANY, LIMITED, priority 2011, published 2014)
